From patent US7365049B2, “Afamin-containing compositions and methods of use” (Vitateg Biotechnology GmbH, priority 2001, dated 2008) come the findings set out here.

“Also recorded” adds a separate entry of the source.

The target of one data set is T1, Afamin (Homo sapiens, UniProt P43652).
T1 sequence (P43652 22-599): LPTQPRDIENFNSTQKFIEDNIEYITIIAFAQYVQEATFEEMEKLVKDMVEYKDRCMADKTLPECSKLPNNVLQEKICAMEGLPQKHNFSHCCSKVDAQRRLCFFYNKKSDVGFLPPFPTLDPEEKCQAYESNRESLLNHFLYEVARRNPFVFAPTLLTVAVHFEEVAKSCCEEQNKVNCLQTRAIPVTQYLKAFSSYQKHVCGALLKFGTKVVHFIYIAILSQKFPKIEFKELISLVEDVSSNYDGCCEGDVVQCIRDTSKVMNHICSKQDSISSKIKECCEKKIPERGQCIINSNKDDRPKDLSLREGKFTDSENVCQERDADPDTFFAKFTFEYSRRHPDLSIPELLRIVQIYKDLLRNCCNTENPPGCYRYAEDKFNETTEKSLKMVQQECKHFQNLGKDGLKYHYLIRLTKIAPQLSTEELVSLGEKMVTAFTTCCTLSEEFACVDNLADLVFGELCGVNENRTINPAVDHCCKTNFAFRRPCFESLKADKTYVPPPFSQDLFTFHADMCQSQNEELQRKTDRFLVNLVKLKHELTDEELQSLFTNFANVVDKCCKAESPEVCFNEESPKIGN
In words: Scatchard-plot analysis of the binding of vitamin E to Afamin. To be noted: FIG. 3.

The test system of data set [1] is isolated cortical neurons of chicken embryos. In words: Low serum assay (2% serum), MTT viability of isolated cortical neurons. Type of data set: cell-based. Particulars: partial serum withdrawal to 2%, FIG. 2a. On the procedure: (§1) The neuroprotective effect of Afamin was examined by assaying isolated cortical neurons of chicken embryos. The effect of Afamin was tested in a low-serum assay and in two lesion assays, namely in a β-amyloid and a H2O2-lesion assay.
(§2) After the low serum assay or the lesion assay, the MTT assay is used to check the viability of neuronal cells (MTT=3-(4,5-dimethylthiazol-2-yl)-2,5-[…]). This is a suitable model which is extremely reproducible. The test also allows for assaying a large number of samples, and dose-dependent differences in the activity of a substance can be evaluated.
(§3) The neuronal viability of cells in vitro can be determined by means of this […] MTT test. The MTT assay is based on the metabolic reduction of MTT, a substance of yellow color, to dark-blue formazane crystals by mitochondrial dehydrogenases (e.g. succinate dehydrogenase). The crystals are dissolved, and the spectrometric absorption is measured at a suitable wave length.
(§4) In detail, isolated cortical neurons of 8- (lesion assays) or 9- (low serum assay) day-old chicken embryos (White Leghorn or Lohman Brown Hybrid strain) were used.
(§5) The neurons were prepared by breaking ethanoltreated eggs and putting the embryos into a plastic dish. […]
(§6) At the end of each experiment, the viability of the cultures was tested by means of the MTT assay with a plate reader at 570 nm.

The test system is the same in data set [2]. Put plainly: H2O2-lesion assay, MTT viability of isolated cortical neurons. The format is cell-based. To be noted: 100 μM H2O2 for 24 h, FIG. 2b.
Data set [3] has the same test system. In words: β-amyloid lesion assay, MTT viability of isolated cortical neurons. Particulars: 20 μM pre-aggregated β-amyloid peptide (Aβ25-35) for 72 hours, FIG. 2c. The format is cell-based. On the procedure:
as §1, §2, §3, §4, §5, §6

The subject of data set [4] is glutamine synthetase (GS). Put plainly: 3-NP-induced reduction of glutamine synthetase (GS) activity in brain spheroids. Type of data set: cell-based. To be noted: 5-day treatment with 3-NP (0.5 and 5 mM), Afamin 0.3 and 3 μg/ml without vitamin E, FIG. 1. An excerpt:
Because of the mechanistic and pathological similarities between 3-NP lesions and Hungington's Disease (HD), 3-NP has been proposed as an alternative HD-model. Malonate and 3-NP are inhibitors of the succinate dehydrogenase which produce an energy loss and lesions which are similar to those observed in HD. Systemic administration of 3-NP causes a progressive locomotory deterioration which corresponds to that of HD.
After the extraction of brain spheroids and a one-week culturing, D,L-alpha-tocopherol (0.1 mM) were added to the medium. Two weeks old spheroids were plated in a plate having six wells. Shortly after the exposure, the medium was replaced by 2 ml of fresh medium. The spheroids were exposed to 3-NP (0.5 and 5 mM, pH adjusted to 7 to 8), or to the protectors vitamin E (0.1 mM), glutathione (1 mM), DTT (0.25 mM), L-NAME (N(G)-nitro-L-[…]-methylester) (0.1 mM), Afamin (without vitamin E (0.3 and 3 μg/ml) or combinations of 3-NP with the protectors for 5 days. After 2 days, freshly prepared 3-NP and protectors were added to the medium (Mathews et al., J. Neurosci, 18(1) (1998), 156-163); Borlongan et al., Neurosci Biohav. Res. 21(3) (1997), 289-293).
The results are illustrated in FIG. 1. […] As mentioned before, this system with 3NP constitutes a recognized model for excitotoxicity and serves as a model for Huntington's Disease.

Regarding `Cc1c(C)c2c(c(C)c1O)CCC(C)(CCCC(C)CCCC(C)CCCC(C)C)O2` [vitamin E, D,L-alpha-tocopherol, reference compound], the “theoretical maximum loading of an Afamin molecule” value on Afamin was 18 molecules of vitamin E. Moreover, in data set [1], the “reduction of apoptosis / neuronal cell death in low serum medium” value was “capable of reducing the apoptosis”. The “reduction of damage / neuronal cell death by H2O2” value in data set [2] is listed as “capable of reducing”. Also, in data set [3], the “reduction of damage / neuronal cell death by β-amyloid peptide” value is on record as “capable of reducing”.

B1: Afamin: 87 kDa protein which belongs to the albumin group; cloned and sequenced, also available in recombinant form (protein, UniProt P43652 22-599, looked up)
Afamin: LPTQPRDIENFNSTQKFIEDNIEYITIIAFAQYVQEATFEEMEKLVKDMVEYKDRCMADKTLPECSKLPNNVLQEKICAMEGLPQKHNFSHCCSKVDAQRRLCFFYNKKSDVGFLPPFPTLDPEEKCQAYESNRESLLNHFLYEVARRNPFVFAPTLLTVAVHFEEVAKSCCEEQNKVNCLQTRAIPVTQYLKAFSSYQKHVCGALLKFGTKVVHFIYIAILSQKFPKIEFKELISLVEDVSSNYDGCCEGDVVQCIRDTSKVMNHICSKQDSISSKIKECCEKKIPERGQCIINSNKDDRPKDLSLREGKFTDSENVCQERDADPDTFFAKFTFEYSRRHPDLSIPELLRIVQIYKDLLRNCCNTENPPGCYRYAEDKFNETTEKSLKMVQQECKHFQNLGKDGLKYHYLIRLTKIAPQLSTEELVSLGEKMVTAFTTCCTLSEEFACVDNLADLVFGELCGVNENRTINPAVDHCCKTNFAFRRPCFESLKADKTYVPPPFSQDLFTFHADMCQSQNEELQRKTDRFLVNLVKLKHELTDEELQSLFTNFANVVDKCCKAESPEVCFNEESPKIGN
As to B1, the “protection of glutamine synthetase activity against inactivation by 3NP” value in data set [4] is on record as “by far the highest effect of all the tested substances”. Besides, the “reduction of apoptosis / neuronal cell death in low serum medium” value in data set [1] was “protects against neuronal cell death; also recorded: capable of reducing the apoptosis”. For the same molecule, in data set [2], the “reduction of damage / neuronal cell death by H2O2” value is recorded as “protects against neuronal cell death; also recorded: capable of reducing”. Further, the “reduction of damage / neuronal cell death by β-amyloid peptide” value in data set [3] was “protects against neuronal cell death; also recorded: capable of reducing”.
